Test results taken from patent US4027039A (priority 1975, dated 1977).
Like-named read-outs stand apart in the source and are kept apart here.

How the values were obtained:
[1] = test system: Herpes virus; experiment: Herpes virus in chicken eggs, single dose 24 hours pre-infection; format: in vivo, chick embryo
[2] = test system: Influenza, Ann Arbor virus; experiment: Influenza Ann Arbor in mice, subcutaneous; late read day 9 (Table 11), 7 (Tables 12, 14), 5 (Table 13); format: in vivo, mouse; conditions: total dose .05 μg
[3] = test system: Influenza PR 8 virus; experiment: Influenza PR 8 in mice, oral; schedule by table; late read day 6 (Table 37), 7 (33, 36), 8 (32, 35, 47), 10 (38); control fraction 18/20 (Table 32), 19/20 (Table 35), else 100%; format: in vivo, mouse
[4] = test system: Influenza B Massachusetts virus; experiment: Influenza B Mass. in mice, oral; late read day 5 (Table 39), 7 (Table 40), 11 (Tables 61, 65); control fraction 16/20 (Table 61), else 100%; format: in vivo, mouse
Description: A portion of a commercially available sample of amantadine was recrystallized from isopropanol. The activity of the material against Influenza B Mass. was tested for the sample as obtained, the recrystallized portion, and the mother liquor obtained from recrystallizing the portion.

[5] = test system: Vaccinia virus; set-up: species or system fertile eggs; conditions: various concentrations
[6] = test system: Herpes virus

For `NNC(N)=O` [semicarbazide], the “No. dying 5-22 day” value ([1]; 2 μg) was 0, the “No. living longer than controls” value ([1]; 2 μg) was 0 and the “Total deaths, 4th day” value ([1]; 2 μg) was 10. For the same molecule, the “Deaths on day 2” value ([1]; 20 μg) was 1, the “Deaths on day 3” value ([1]; 20 μg) was 5 and the “No. dying 5-22 day” value ([1]; 20 μg) was 0. The “No. living longer than controls” value ([1]; 20 μg) was 1, the “Total deaths, 4th day” value ([1]; 20 μg) was 11 and the “Deaths on day 1” value ([1]; .00005 μg) was 4. The “Deaths on day 3” value ([1]; .00005 μg) was 4, the “No. dying 5-22 day” value ([1]; .00005 μg) was 1 and the “No. living longer than controls” value ([1]; .00005 μg) was 1. For the same molecule, the “Total deaths, 4th day” value ([1]; .00005 μg) was 11, the “Deaths on day 3” value ([1]; .0005 μg) was 6 and the “Deaths on day 4” value ([1]; .0005 μg) was 1. For the same molecule, the “No. dying 5-22 day” value ([1]; .0005 μg) was 0, the No. hatched ([1]; .0005 μg) was 1 and the “No. living longer than controls” value ([1]; .0005 μg) was 1. For the same molecule, the “Total deaths, 4th day” value ([1]; .0005 μg) was 11, the No. hatched ([1]; .005 μg) was 1 and the “No. living longer than controls” value ([1]; .005 μg) was 4. For the same molecule, the “Total deaths, 4th day” value ([1]; .005 μg) was 7, the “Deaths on day 1” value ([1]; .05 μg) was 1 and the “Deaths on day 2” value ([1]; .05 μg) was 4. The “Deaths on day 3” value ([1]; .05 μg) was 6, the “No. dying 5-22 day” value ([1]; .05 μg) was 0 and the “No. living longer than controls” value ([1]; .05 μg) was 1. For the same molecule, the “Total deaths, 4th day” value ([1]; .05 μg) was 11, the “Deaths on day 3” value ([1]; .5 μg) was 5 and the “Total deaths, 4th day” value ([1]; .5 μg) was 9. For the same molecule, the “Total no. living longer than controls” value ([1]; all doses) was 10, the “No. animals surviving after 5-9 days” value [2] was 0 and the Survivors ([3]; total dose .000005 μg) was 0. The “No. animals surviving when 100% (or given fraction) of controls are dead” value ([3]; total dose .00005 μg) was 0, the Survivors ([3]; total dose .00005 μg) was 0 and the “No. animals surviving when 100% (or given fraction) of controls are dead” value ([3]; total dose .0005 μg) was 0. For the same molecule, the Survivors ([3]; total dose .0005 μg) was 0, the “No. animals surviving when 100% (or given fraction) of controls are dead” value ([3]; total dose .005 μg) was 0 and the Survivors ([3]; total dose .005 μg) was 0. For the same molecule, the “No. animals surviving when 100% (Table 61: 16/20) of controls are dead” value ([4]; total dose .000005 μg (5 pg)) was 0, the Survivors ([4]; total dose .000005 μg (5 pg)) was 0 and the “No. animals surviving when 100% (Table 61: 16/20) of controls are dead” value ([4]; total dose .00005 μg (50 pg)) was 0. The Survivors ([4]; total dose .00005 μg (50 pg)) was 0, the “No. animals surviving when 100% (Table 61: 16/20) of controls are dead” value ([4]; total dose .0005 μg (500 pg)) was 1 and the Survivors ([4]; total dose .0005 μg (500 pg)) was 0. The “No. animals surviving after 5 days (Table 61: 11 days)” value ([4]; total dose .005 μg (5 ng)) was 6, the “No. animals surviving when 100% (Table 61: 16/20) of controls are dead” value ([4]; total dose .005 μg (5 ng)) was 3 and the Survivors ([4]; total dose .005 μg (5 ng)) was 0. For the same molecule, the “No. animals surviving after 5 days (Table 61: 11 days)” value ([4]; total dose .05 μg (50 ng)) was 6, the “No. animals surviving when 100% (Table 61: 16/20) of controls are dead” value ([4]; total dose .05 μg (50 ng)) was 1 and the Survivors ([4]; total dose .05 μg (50 ng)) was 0. The “No. animals surviving when 100% (Table 61: 16/20) of controls are dead” value ([4]; total dose .5 μg (500 ng)) was 1, the Survivors ([4]; total dose .5 μg (500 ng)) was 0 and the “effect on pox formation on the membrane” value [5] was “No effect”. The animals survived ([6]; mouse, in vivo) was 20 to 30%, the animals protected ([6]; no pre-treatment, one dose level) was 50% and the “No. animals surviving after 6-9 days” value ([6]; total dose 5 μg) was 7. For the same molecule, the “No. animals surviving after 6-9 days” value ([6]; total dose .00005 μg) was 5, the “No. animals surviving when 100% (or given fraction) of controls are dead” value ([6]; total dose .00005 μg) was 5 and the “No. animals surviving when 100% (or given fraction) of controls are dead” value ([6]; total dose .0005 μg) was 0. For the same molecule, the “No. animals surviving after 6-9 days” value ([6]; total dose .05 μg) was 5.
